Measurements taken from publication PMC8634768 (ChemistryOpen, 2021).

Columns and labels:
Hsp90α = Hsp90α (Homo sapiens, UniProt P07900); test: fluorescence polarization competition with FITC-geldanamycin; assay type: binding
PDHK1 = PDHK1 (Homo sapiens, UniProt Q15118); test: HotSpot […]-ATP radiometric filter-binding kinase assay; assay type: biochemical
Sequence of PDHK1 (Q15118 29-436): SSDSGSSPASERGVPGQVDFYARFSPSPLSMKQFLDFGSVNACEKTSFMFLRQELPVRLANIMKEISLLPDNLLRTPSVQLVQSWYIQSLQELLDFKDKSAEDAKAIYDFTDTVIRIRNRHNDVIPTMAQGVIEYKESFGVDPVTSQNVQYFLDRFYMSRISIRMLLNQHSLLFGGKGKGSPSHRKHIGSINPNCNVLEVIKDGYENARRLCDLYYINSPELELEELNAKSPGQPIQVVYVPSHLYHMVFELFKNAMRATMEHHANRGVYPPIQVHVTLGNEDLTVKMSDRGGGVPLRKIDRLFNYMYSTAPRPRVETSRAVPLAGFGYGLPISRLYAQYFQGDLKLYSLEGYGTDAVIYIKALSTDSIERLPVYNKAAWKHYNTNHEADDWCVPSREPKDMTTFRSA

Compound | IC50 (Hsp90α) [nM] | IC50 (PDHK1) [nM]
CC(C)c1cc(-n2nnc(C(=O)Nc3cccc(NS(C)(=O)=O)c3)c2-c2ccncc2)c(O)cc1O [4a, 1‐(2,4‐dihydroxy‐5‐isopropylphenyl)‐N‐[3‐(methylsulfonamido)phenyl]‐5‐(pyridin‐4‐yl)‐1H‐1,2,3‐triazole‐4‐carboxamide] | 7 | 28700
CC(C)c1cc(-n2nnc(C(=O)Nc3c(F)ccc(NS(C)(=O)=O)c3F)c2-c2ccncc2)c(O)cc1O [4b, N‐[2,6‐difluoro‐3‐(methylsulfonamido)phenyl]‐1‐(2,4‐dihydroxy‐5‐isopropylphenyl)‐5‐(pyridin‐4‐yl)‐1H‐1,2,3‐triazole‐4‐carboxamide] | 1700 | 
CCS(=O)(=O)Nc1ccc(F)c(NC(=O)c2nnn(-c3cc(C(C)C)c(O)cc3O)c2-c2ccncc2)c1F [4c, 1‐(2,4‐dihydroxy‐5‐isopropylphenyl)‐N‐[3‐(ethylsulfonamido)‐2,6‐difluorophenyl]‐5‐(pyridin‐4‐yl)‐1H‐1,2,3‐triazole‐4‐carboxamide] | 1100 | 
CCCS(=O)(=O)Nc1ccc(F)c(NC(=O)c2nnn(-c3cc(C(C)C)c(O)cc3O)c2-c2ccncc2)c1F [4d, N‐[2,6‐difluoro‐3‐(propylsulfonamido)phenyl]‐1‐(2,4‐dihydroxy‐5‐isopropylphenyl)‐5‐(pyridin‐4‐yl)‐1H‐1,2,3‐triazole‐4‐carboxamide] | 30 | 38300
O=C1Nc2ccc(I)cc2C1=Cc1cc(Br)c(O)c(Br)c1 [GW5074, reference compound] |  | 7100
